Data: the supplement of paper PMC9663587

Each cell line was assayed with CCN1CCN(Cc2ccc(Nc3ncc(F)c(-c4cc(F)c5nc(C)n(C(C)C)c5c4)n3)nc2)CC1 (assay: GR value, 72 h; higher = faster growth (1 = untreated, <0 = killing)). Conditions: 0.1 µM.
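Further: breast cancer and non-malignant breast epithelial lines, nine half-log doses, viable cells counted by Hoechst and LIVE/DEAD dye imaging versus time-zero plates and DMSO controls.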

Row | Cell Line | GR value
1 | MDAMB415 | 0.136 GR
2 | MDAMB436 | 1.02 GR
3 | MDAMB453 | 0.0343 GR

Same assay, conditions: 0.3162 µM

Row | Cell Line | GR value
4 | MDAMB415 | 0.113 GR
5 | MDAMB436 | 1 GR
6 | MDAMB453 | 0.0775 GR

Same assay, conditions: 1 µM

Row | Cell Line | GR value
7 | MDAMB415 | 0.086 GR
8 | MDAMB436 | 0.719 GR
9 | MDAMB453 | 0.0548 GR

Same assay, conditions: 3.162 µM

Row | Cell Line | GR value
10 | MDAMB415 | 0.0858 GR
11 | MDAMB436 | 0.337 GR
12 | MDAMB453 | 0.0127 GR

Same assay, conditions: 10 µM

Row | Cell Line | GR value
13 | MDAMB415 | 0.0092 GR
14 | MDAMB436 | -0.322 GR
15 | MDAMB453 | -0.787 GR

What follows are cell lines tested with CCc1cnn2c(NCc3ccc[n+]([O-])c3)cc(N3CCCC[C@H]3CCO)nc12 in the same assay as above. Conditions: 0.0001 µM.

Row | Cell Line | GR value
16 | MDAMB415 | 1.06 GR
17 | MDAMB436 | 0.969 GR
18 | MDAMB453 | 1.05 GR

Same assay, conditions: 0.0003162 µM

Row | Cell Line | GR value
19 | MDAMB415 | 1.04 GR
20 | MDAMB436 | 1.01 GR
21 | MDAMB453 | 1.06 GR

Same assay, conditions: 0.001 µM

Row | Cell Line | GR value
22 | MDAMB415 | 1.18 GR
23 | MDAMB436 | 1.07 GR
24 | MDAMB453 | 1.04 GR

Same assay, conditions: 0.003162 µM

Row | Cell Line | GR value
25 | MDAMB415 | 1.2 GR
26 | MDAMB436 | 1.11 GR
27 | MDAMB453 | 1.03 GR

Same assay, conditions: 0.01 µM

Row | Cell Line | GR value
28 | MDAMB415 | 0.935 GR
29 | MDAMB436 | 0.868 GR
30 | MDAMB453 | 0.645 GR

Same assay, conditions: 0.03162 µM

Row | Cell Line | GR value
31 | MDAMB415 | -0.112 GR
32 | MDAMB436 | -0.101 GR
33 | MDAMB453 | -0.173 GR

Same assay, conditions: 0.1 µM

Row | Cell Line | GR value
34 | MDAMB415 | -0.482 GR
35 | MDAMB436 | -0.124 GR
36 | MDAMB453 | -0.28 GR

Same assay, conditions: 0.3162 µM

Row | Cell Line | GR value
37 | MDAMB415 | -0.48 GR
38 | MDAMB436 | -0.0986 GR
39 | MDAMB453 | -0.238 GR

Same assay, conditions: 1 µM

Row | Cell Line | GR value
40 | MDAMB415 | -0.484 GR
41 | MDAMB436 | -0.15 GR
42 | MDAMB453 | -0.242 GR

These cell lines were tested with CN(C)C(=O)c1cc2cnc(Nc3ccc(N4CCNCC4)cn3)nc2n1C1CCCC1 [LEE011/Ribociclib] in the same assay as above. Conditions: 0.001 µM.

Row | Cell Line | GR value
43 | MDAMB415 | 0.708 GR
44 | MDAMB436 | 0.982 GR
45 | MDAMB453 | 0.717 GR

Same assay, conditions: 0.003162 µM

Row | Cell Line | GR value
46 | MDAMB415 | 0.659 GR
47 | MDAMB436 | 1.05 GR
48 | MDAMB453 | 0.647 GR

Same assay, conditions: 0.01 µM

Row | Cell Line | GR value
49 | MDAMB415 | 0.504 GR
50 | MDAMB436 | 1.06 GR
51 | MDAMB453 | 0.562 GR

Same assay, conditions: 0.03162 µM

Row | Cell Line | GR value
52 | MDAMB415 | 0.395 GR
53 | MDAMB436 | 1.08 GR
54 | MDAMB453 | 0.637 GR

Same assay, conditions: 0.1 µM

Row | Cell Line | GR value
55 | MDAMB415 | 0.287 GR
56 | MDAMB436 | 0.913 GR
57 | MDAMB453 | 0.461 GR

Same assay, conditions: 0.3162 µM

Row | Cell Line | GR value
58 | MDAMB415 | 0.248 GR
59 | MDAMB436 | 1.03 GR
60 | MDAMB453 | 0.365 GR

Same assay, conditions: 1 µM

Row | Cell Line | GR value
61 | MDAMB415 | 0.264 GR
62 | MDAMB436 | 0.95 GR
63 | MDAMB453 | 0.273 GR

Same assay, conditions: 3.162 µM

Row | Cell Line | GR value
64 | MDAMB415 | 0.278 GR
65 | MDAMB436 | 0.982 GR
66 | MDAMB453 | 0.225 GR

Same assay, conditions: 10 µM

Row | Cell Line | GR value
67 | MDAMB415 | 0.222 GR
68 | MDAMB436 | 0.951 GR
69 | MDAMB453 | 0.208 GR

What follows are cell lines tested with CN(C)C/C=C/C(=O)Nc1ccc(C(=O)N2CCC[C@@H](Nc3ncc(Cl)c(-c4c[nH]c5ccccc45)n3)C2)cc1 [THZ531] in the same assay as above. Conditions: 0.0001 µM.

Row | Cell Line | GR value
70 | MDAMB415 | 0.975 GR
71 | MDAMB436 | 1.1 GR
72 | MDAMB453 | 1.1 GR

Same assay, conditions: 0.0003162 µM

Row | Cell Line | GR value
73 | MDAMB415 | 0.9 GR
74 | MDAMB436 | 1.02 GR
75 | MDAMB453 | 0.965 GR

Same assay, conditions: 0.001 µM

Row | Cell Line | GR value
76 | MDAMB415 | 0.875 GR
77 | MDAMB436 | 0.944 GR
78 | MDAMB453 | 0.877 GR

Same assay, conditions: 0.003162 µM

Row | Cell Line | GR value
79 | MDAMB415 | 1.05 GR
80 | MDAMB436 | 1.07 GR
81 | MDAMB453 | 0.996 GR

Same assay, conditions: 0.01 µM

Row | Cell Line | GR value
82 | MDAMB415 | 0.946 GR
83 | MDAMB436 | 1.12 GR
84 | MDAMB453 | 0.851 GR

Same assay, conditions: 0.03162 µM

Row | Cell Line | GR value
85 | MDAMB415 | 0.731 GR
86 | MDAMB436 | 1.01 GR
87 | MDAMB453 | 0.38 GR

Same assay, conditions: 0.1 µM

Row | Cell Line | GR value
88 | MDAMB415 | 0.0348 GR
89 | MDAMB436 | 0.676 GR
90 | MDAMB453 | -0.333 GR

Same assay, conditions: 0.3162 µM

Row | Cell Line | GR value
91 | MDAMB415 | -0.33 GR
92 | MDAMB436 | 0.328 GR
93 | MDAMB453 | -0.27 GR

Same assay, conditions: 1 µM

Row | Cell Line | GR value
94 | MDAMB415 | -0.343 GR
95 | MDAMB436 | 0.0201 GR
96 | MDAMB453 | -0.266 GR

Each cell line was assayed with CN1CC[C@H](c2c(O)cc(O)c3c(=O)cc(-c4ccccc4Cl)oc23)[C@H](O)C1 [Flavopiridol] in the same assay as above. Conditions: 0.0001 µM.

Row | Cell Line | GR value
97 | MDAMB415 | 1 GR
98 | MDAMB436 | 0.988 GR
99 | MDAMB453 | 1.06 GR

Same assay, conditions: 0.0003162 µM

Row | Cell Line | GR value
100 | MDAMB415 | 1.01 GR
101 | MDAMB436 | 0.97 GR
102 | MDAMB453 | 1.04 GR

Same assay, conditions: 0.001 µM

Row | Cell Line | GR value
103 | MDAMB415 | 0.869 GR
104 | MDAMB436 | 0.97 GR
105 | MDAMB453 | 0.944 GR

Same assay, conditions: 0.003162 µM

Row | Cell Line | GR value
106 | MDAMB415 | 0.766 GR
107 | MDAMB436 | 0.889 GR
108 | MDAMB453 | 0.819 GR

Same assay, conditions: 0.01 µM

Row | Cell Line | GR value
109 | MDAMB415 | 0.972 GR
110 | MDAMB436 | 1.01 GR
111 | MDAMB453 | 0.916 GR

Same assay, conditions: 0.03162 µM

Row | Cell Line | GR value
112 | MDAMB415 | 0.821 GR
113 | MDAMB436 | 0.905 GR
114 | MDAMB453 | 1.05 GR

Same assay, conditions: 0.1 µM

Row | Cell Line | GR value
115 | MDAMB415 | 0.788 GR
116 | MDAMB436 | 0.701 GR
117 | MDAMB453 | 0.671 GR

Same assay, conditions: 0.3162 µM

Row | Cell Line | GR value
118 | MDAMB415 | 0.25 GR
119 | MDAMB436 | 0.125 GR
120 | MDAMB453 | 0.0173 GR

Same assay, conditions: 1 µM

Row | Cell Line | GR value
121 | MDAMB415 | -0.298 GR
122 | MDAMB436 | -0.0603 GR
123 | MDAMB453 | -0.186 GR
